In brackets after ≈: the same amount, converted by molar mass. Bridge positions count the residues as written; N and C are the ends. Square brackets hold non-standard residues; d marks the D form. Peptide text beside a SMILES is read from it. * marks the point of attachment. pTerphenylCO(4''-OnC5H11) = CCCCCOc1ccc(-c2ccc(-c3ccc(C(=O)*)cc3)cc2)cc1; 2Naphthoyl(6-heptyloxy) = CCCCCCCOc1ccc2cc(C(=O)*)ccc2c1; 2Naphthoyl(6-octyloxy) = CCCCCCCCOc1ccc2cc(C(=O)*)ccc2c1; X2 = CCCCCCCOc1ccc(-c2ccc(-c3ccc(C(=O)*)cc3)cc2)cc1; X1 = CCCOc1ccc(-c2ccc(-c3ccc(C(=O)*)cc3)cc2)cc1; Pro(4S-NH2) = N[C@@H]1CN[C@H](C(=O)O)C1; hTyr = N[C@@H](CCc1ccc(O)cc1)C(=O)O; Orn = NCCC[C@H](N)C(=O)O
Tests used:
Type in all cases: functional
Candida albicans = test: Antifungal activity against Candida albicans after 24 hrs by serial dilution method
Candida tropicalis = test: Antifungal activity against Candida tropicalis after 24 hrs by serial dilution method
Candida parapsilosis = test: Antifungal activity against Candida parapsilosis after 24 hrs by serial dilution method; conditions: Lodderomyces parapsilosis
Pichia kudriavzevii = test: Antifungal activity against Candida krusei after 24 hrs by serial dilution method
Cryptococcus neoformans = test: Antifungal activity against Cryptococcus neoformans after 72 hrs by serial dilution method
Aspergillus fumigatus = test: Antifungal activity against Aspergillus fumigatus after 7 days by serial dilution method; conditions: 168 h
Trichophyton rubrum = test: Antifungal activity against Trichophyton rubrum after 7 days by serial dilution method; conditions: 168 h

SMILES	MIC80 (Candida albicans)	MIC80 (Candida tropicalis)	MIC80 (Candida parapsilosis)	MIC80 (Pichia kudriavzevii)	MIC80 (Cryptococcus neoformans)	MIC80 (Aspergillus fumigatus)	MIC80 (Trichophyton rubrum)
CCCOc1ccc(-c2ccc(-c3ccc(C(=O)N[C@H]4CCCNC(=O)[C@@H]5C[C@H](N)CN5C(=O)[C@H](CCCN)NC(=O)[C@H](CCc5ccc(O)cc5)NC(=O)[C@@H]5CCCN5C(=O)[C@H](C(C)C)NC4=O)cc3)cc2)cc1.Cc1ccc(S(=O)(=O)O)cc1 (X1-[Orn]VP[hTyr][Orn][Pro(4S-NH2)]; lactam 1-C)	0.5 µg/mL	8 µg/mL	4 µg/mL	2 µg/mL	32 µg/mL	0.5 µg/mL	16 µg/mL
CC[C@H](C)C[C@H](C)CCCCCCCCC(=O)N[C@H]1C[C@@H](O)[C@@H](NCCN)NC(=O)[C@@H]2[C@@H](O)CCN2C(=O)[C@H]([C@H](O)CCN)NC(=O)[C@H]([C@H](O)[C@@H](O)c2ccc(O)cc2)NC(=O)[C@@H]2C[C@@H](O)CN2C(=O)[C@H]([C@@H](C)O)NC1=O [CASPOFUNGIN]	0.5 µg/mL (≈ 0.457 µM)	4 µg/mL (≈ 3.66 µM)	1 µg/mL (≈ 0.915 µM)	0.25 µg/mL (≈ 0.229 µM)	16 µg/mL (≈ 14.6 µM)	1 µg/mL (≈ 0.915 µM)	16 µg/mL (≈ 14.6 µM)
CCCCCOc1ccc(-c2ccc(-c3ccc(C(=O)N[C@H]4CCCNC(=O)[C@@H]5C[C@H](N)CN5C(=O)[C@H](CCCN)NC(=O)[C@H](CCc5ccc(O)cc5)NC(=O)[C@@H]5CCCN5C(=O)[C@H](C(C)C)NC4=O)cc3)cc2)cc1.Cc1ccc(S(=O)(=O)O)cc1 ({pTerphenylCO(4''-OnC5H11)}-[Orn]VP[hTyr][Orn][Pro(4S-NH2)]; lactam 1-C)	1 µg/mL	8 µg/mL	4 µg/mL	2 µg/mL	32 µg/mL	0.5 µg/mL	32 µg/mL
CCCCCOc1ccc(-c2ccc(-c3ccc(C(=O)N[C@H]4CCCNC(=O)[C@@H]5C[C@H](N)CN5C(=O)[C@H](CCCN)NC(=O)[C@H](CCc5ccc(O)cc5)NC(=O)[C@@H]5CCCN5C(=O)[C@H]([C@@H](C)O)NC4=O)cc3)cc2)cc1.Cc1ccc(S(=O)(=O)O)cc1 ({pTerphenylCO(4''-OnC5H11)}-[Orn]TP[hTyr][Orn][Pro(4S-NH2)]; lactam 1-C)	0.25 µg/mL	4 µg/mL	8 µg/mL	0.5 µg/mL	64 µg/mL	1 µg/mL	64 µg/mL
CCCOc1ccc(-c2ccc(-c3ccc(C(=O)N[C@H]4CCCNC(=O)[C@@H]5C[C@H](N)CN5C(=O)[C@H](CCCCN)NC(=O)[C@H](CCc5ccc(O)cc5)NC(=O)[C@@H]5CCCN5C(=O)[C@H](C(C)C)NC4=O)cc3)cc2)cc1.Cc1ccc(S(=O)(=O)O)cc1 (X1-[Orn]VP[hTyr]K[Pro(4S-NH2)]; lactam 1-C)	0.5 µg/mL	16 µg/mL	4 µg/mL	2 µg/mL	32 µg/mL	0.25 µg/mL	16 µg/mL
CCCCCOc1ccc(-c2ccc(-c3ccc(C(=O)N[C@H]4CCCNC(=O)[C@@H]5C[C@H](N)CN5C(=O)[C@H](CCCCN)NC(=O)[C@H](CCc5ccc(O)cc5)NC(=O)[C@@H]5CCCN5C(=O)[C@H]([C@@H](C)O)NC4=O)cc3)cc2)cc1.Cc1ccc(S(=O)(=O)O)cc1 ({pTerphenylCO(4''-OnC5H11)}-[Orn]TP[hTyr]K[Pro(4S-NH2)]; lactam 1-C)	0.5 µg/mL	8 µg/mL	2 µg/mL	1 µg/mL	16 µg/mL	1 µg/mL	32 µg/mL
CCCOc1ccc(-c2ccc(-c3ccc(C(=O)N[C@H]4CCCNC(=O)[C@@H]5C[C@H](N)CN5C(=O)[C@H](CCCCN)NC(=O)[C@H](CCc5ccc(O)cc5)NC(=O)[C@@H]5CCCN5C(=O)[C@H]([C@@H](C)O)NC4=O)cc3)cc2)cc1.Cc1ccc(S(=O)(=O)O)cc1 (X1-[Orn]TP[hTyr]K[Pro(4S-NH2)]; lactam 1-C)	0.25 µg/mL	16 µg/mL	2 µg/mL	1 µg/mL	16 µg/mL	1 µg/mL	64 µg/mL
CCCCCCCOc1ccc(-c2ccc(-c3ccc(C(=O)N[C@H]4CCCNC(=O)[C@@H]5C[C@H](N)CN5C(=O)[C@H](CCCN)NC(=O)[C@H](CCc5ccc(O)cc5)NC(=O)[C@@H]5CCCN5C(=O)[C@H]([C@@H](C)O)NC4=O)cc3)cc2)cc1.Cc1ccc(S(=O)(=O)O)cc1 (X2-[Orn]TP[hTyr][Orn][Pro(4S-NH2)]; lactam 1-C)	0.25 µg/mL	8 µg/mL	2 µg/mL	1 µg/mL	16 µg/mL	0.5 µg/mL	16 µg/mL

Second part, the compound after the results:

MIC80 (Candida albicans)	MIC80 (Candida tropicalis)	MIC80 (Candida parapsilosis)	MIC80 (Pichia kudriavzevii)	MIC80 (Cryptococcus neoformans)	MIC80 (Aspergillus fumigatus)	MIC80 (Trichophyton rubrum)	SMILES
1 µg/mL	32 µg/mL	4 µg/mL	2 µg/mL	32 µg/mL	0.5 µg/mL	32 µg/mL	CCCCCCCOc1ccc2cc(C(=O)N[C@H]3CCCNC(=O)[C@@H]4C[C@H](N)CN4C(=O)[C@H](CCCN)NC(=O)[C@H](CCc4ccc(O)cc4)NC(=O)[C@@H]4CCCN4C(=O)[C@H](C(C)C)NC3=O)ccc2c1.Cc1ccc(S(=O)(=O)O)cc1 ({2Naphthoyl(6-heptyloxy)}-[Orn]VP[hTyr][Orn][Pro(4S-NH2)]; lactam 1-C)
2 µg/mL	64 µg/mL	32 µg/mL	8 µg/mL	> 64 µg/mL	> 64 µg/mL	> 64 µg/mL	CCCCCCCOc1ccc2cc(C(=O)N[C@H]3CCCNC(=O)[C@@H]4C[C@H](N)CN4C(=O)[C@H]([C@H](C)O)NC(=O)[C@H](CCc4ccc(O)cc4)NC(=O)[C@@H]4C[C@H](N)CN4C(=O)[C@H]([C@@H](C)O)NC3=O)ccc2c1.Cc1ccc(S(=O)(=O)O)cc1
2 µg/mL	64 µg/mL	32 µg/mL	2 µg/mL	> 64 µg/mL	> 64 µg/mL	> 64 µg/mL	CCCCCCOc1ccc2cc(C(=O)N[C@H]3CCCNC(=O)[C@@H]4C[C@H](N)CN4C(=O)[C@H]([C@H](C)O)NC(=O)[C@H](CCc4ccc(O)cc4)NC(=O)[C@@H]4C[C@H](N)CN4C(=O)[C@H]([C@@H](C)O)NC3=O)ccc2c1.Cc1ccc(S(=O)(=O)O)cc1
> 64 µg/mL	32 µg/mL	32 µg/mL	8 µg/mL	> 64 µg/mL	> 64 µg/mL	64 µg/mL	CCCCCCCOc1ccc2cc(C(=O)N[C@H]3CCCNC(=O)[C@@H]4C[C@H](N)CN4C(=O)[C@H]([C@H](C)O)NC(=O)[C@H](CCc4ccc(O)cc4)NC(=O)[C@@H]4C[C@H](N)CN4C(=O)[C@H](CO)NC3=O)ccc2c1.Cc1ccc(S(=O)(=O)O)cc1
0.5 µg/mL	4 µg/mL	4 µg/mL	1 µg/mL	32 µg/mL	1 µg/mL	32 µg/mL	CCCCCCCCOc1ccc2cc(C(=O)N[C@H]3CCCNC(=O)[C@@H]4C[C@H](N)CN4C(=O)[C@H](CCCN)NC(=O)[C@H](CCc4ccc(O)cc4)NC(=O)[C@@H]4CCCN4C(=O)[C@H]([C@@H](C)O)NC3=O)ccc2c1.Cc1ccc(S(=O)(=O)O)cc1 ({2Naphthoyl(6-octyloxy)}-[Orn]TP[hTyr][Orn][Pro(4S-NH2)]; lactam 1-C)
1 µg/mL	16 µg/mL	8 µg/mL	2 µg/mL	64 µg/mL	1 µg/mL	32 µg/mL	CCCCCCCOc1ccc(-c2ccc(-c3ccc(C(=O)N[C@H]4CCCNC(=O)[C@@H]5C[C@H](N)CN5C(=O)[C@H](CCCN)NC(=O)[C@H](CCc5ccc(O)cc5)NC(=O)[C@@H]5CCCN5C(=O)[C@H](C(C)C)NC4=O)cc3)cc2)cc1.Cc1ccc(S(=O)(=O)O)cc1 (X2-[Orn]VP[hTyr][Orn][Pro(4S-NH2)]; lactam 1-C)
0.25 µg/mL	32 µg/mL	4 µg/mL	1 µg/mL	32 µg/mL	1 µg/mL	32 µg/mL	CCCCCCCOc1ccc2cc(C(=O)N[C@H]3CCCNC(=O)[C@@H]4C[C@H](N)CN4C(=O)[C@H](CCCN)NC(=O)[C@H](CCc4ccc(O)cc4)NC(=O)[C@@H]4CCCN4C(=O)[C@H]([C@@H](C)O)NC3=O)ccc2c1.Cc1ccc(S(=O)(=O)O)cc1 ({2Naphthoyl(6-heptyloxy)}-[Orn]TP[hTyr][Orn][Pro(4S-NH2)]; lactam 1-C)
1 µg/mL	32 µg/mL	4 µg/mL	2 µg/mL	32 µg/mL	1 µg/mL	32 µg/mL	CCCCCCCCOc1ccc2cc(C(=O)N[C@H]3CCCNC(=O)[C@@H]4C[C@H](N)CN4C(=O)[C@H](CCCCN)NC(=O)[C@H](CCc4ccc(O)cc4)NC(=O)[C@@H]4CCCN4C(=O)[C@H](C(C)C)NC3=O)ccc2c1.Cc1ccc(S(=O)(=O)O)cc1 ({2Naphthoyl(6-octyloxy)}-[Orn]VP[hTyr]K[Pro(4S-NH2)]; lactam 1-C)
0.5 µg/mL	32 µg/mL	4 µg/mL	1 µg/mL	32 µg/mL	1 µg/mL	32 µg/mL	CCCCCCCCOc1ccc2cc(C(=O)N[C@H]3CCCNC(=O)[C@@H]4C[C@H](N)CN4C(=O)[C@H](CCCCN)NC(=O)[C@H](CCc4ccc(O)cc4)NC(=O)[C@@H]4CCCN4C(=O)[C@H]([C@@H](C)O)NC3=O)ccc2c1.Cc1ccc(S(=O)(=O)O)cc1 ({2Naphthoyl(6-octyloxy)}-[Orn]TP[hTyr]K[Pro(4S-NH2)]; lactam 1-C)
1 µg/mL	16 µg/mL	4 µg/mL	2 µg/mL	32 µg/mL	1 µg/mL	32 µg/mL	CCCCCOc1ccc(-c2ccc(-c3ccc(C(=O)N[C@H]4CCCNC(=O)[C@@H]5C[C@H](N)CN5C(=O)[C@H](CCCCN)NC(=O)[C@H](CCc5ccc(O)cc5)NC(=O)[C@@H]5CCCN5C(=O)[C@H](C(C)C)NC4=O)cc3)cc2)cc1.Cc1ccc(S(=O)(=O)O)cc1 ({pTerphenylCO(4''-OnC5H11)}-[Orn]VP[hTyr]K[Pro(4S-NH2)]; lactam 1-C)
